Data as given in ChEMBL document CHEMBL1122562, “Synthesis of 3-hydroxy-2- and -4-pyridone nucleosides as potential antitumor agents” (1984).
Active and inactive are the calls of the source. No cut-off for these calls is given here.

Key:
P388 [1] = experiment: Compound was tested in vitro for its inhibitory activity against murine P-388 leukemia; type: functional; conditions: Mus musculus, read-out: ID50 (the source's name)
P388 [2] = experiment: Compound was tested in vitro for its inhibitory activity against murine P-388 leukemia at doses ranging from 25 to 400 mg/kg qd 1-5 minimally active T/Cvalues of 125 in this tumor system; type: functional, organism-based; conditions: Mus musculus
P388 [3] = experiment: Compound was tested in vitro for its inhibitory activity against murine P-388 leukemia at doses ranging from 25 to 400 mg/kg qd 1-5; minimally active T/Cvalues of 125 in this tumor system; type: functional, organism-based; conditions: Mus musculus

Row | IC50 (P388 [1]) | SMILES | ID50 (P388 [3]) | other results
1 | 450 µM | O=c1c(O)cccn1[C@@H]1O[C@H](CO)[C@@H](O)[C@H]1O | – | –
2 | 300 µM | Oc1cccnc1O | – | –
3 | – | O=c1c(O)cccn1[C@@H]1O[C@H](CO)[C@@H](O)[C@@H]1O | – | ID50 (P388 [2]): inactive
4 | 110 µM | Cc1nccc(O)c1O | – | –
5 | – | CC(=O)OC[C@H]1O[C@@H](n2cccc(OC(C)=O)c2=O)[C@H](OC(C)=O)[C@@H]1OC(C)=O | inactive | –
6 | 60 µM | Cc1c(O)c(=O)ccn1C1O[C@H](CO)[C@@H](O)[C@H]1O (stereo partly drawn) | – | –
7 | – | Cc1c(O)c(O)cc[n+]1C1O[C@H](CO)[C@@H](O)[C@@H]1O (stereo partly drawn) | inactive | –
8 | – | COc1c(C)n(C2O[C@H](CO)[C@@H](O)[C@H]2O)ccc1=O (stereo partly drawn) | inactive | –
